{
  "source": "PubChem BioAssay AID2060496",
  "about": "(Molecular Pharmacology Branch, DTP, NCI, 2025)",
  "tested_on": "276233-004-R-J1-PDC complex spheroid viability",
  "experiment": "Anticancer human tumor 276233-004-R-J1-PDC patient-derived colon adenocarcinoma cell line growth inhibition [GQUAD]",
  "conditions": "for pIC50: curve of first compound; for viability, T/C: stronger effect = lower value",
  "summary_of_the_method": "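Viability of tumor cells grown as complex spheroids with endothelial and stromal cells, exposed to drug combinations. Top concentration at or near clinical Cmax (else 10 microM), diluted in half-log increments.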",
  "key": {"[1]": {"conditions": "second compound 0.0316 µM, first compound 0.0316 µM"}, "[2]": {"conditions": "second compound 0.0316 µM, first compound 0.1 µM"}, "[3]": {"conditions": "second compound 0.0316 µM, first compound 0.316 µM"}, "[4]": {"conditions": "second compound 0.0316 µM, first compound 1 µM"}, "[5]": {"conditions": "second compound 0.0316 µM, first compound 3.16 µM"}, "[6]": {"conditions": "second compound 0.0316 µM, first compound 10 µM"}, "[7]": {"conditions": "second compound 0.1 µM, first compound 0.0316 µM"}, "[8]": {"conditions": "second compound 0.1 µM, first compound 0.1 µM"}, "[9]": {"conditions": "second compound 0.1 µM, first compound 0.316 µM"}, "[10]": {"conditions": "second compound 0.1 µM, first compound 1 µM"}, "[11]": {"conditions": "second compound 0.1 µM, first compound 3.16 µM"}, "[12]": {"conditions": "second compound 0.1 µM, first compound 10 µM"}, "[13]": {"conditions": "second compound 0.316 µM, first compound 0.0316 µM"}, "[14]": {"conditions": "second compound 0.316 µM, first compound 0.1 µM"}, "[15]": {"conditions": "second compound 0.316 µM, first compound 0.316 µM"}, "[16]": {"conditions": "second compound 0.316 µM, first compound 1 µM"}, "[17]": {"conditions": "second compound 0.316 µM, first compound 3.16 µM"}, "[18]": {"conditions": "second compound 0.316 µM, first compound 10 µM"}, "[19]": {"conditions": "second compound 1 µM, first compound 0.0316 µM"}, "[20]": {"conditions": "second compound 1 µM, first compound 0.1 µM"}, "[21]": {"conditions": "second compound 1 µM, first compound 0.316 µM"}, "[22]": {"conditions": "second compound 1 µM, first compound 1 µM"}, "[23]": {"conditions": "second compound 1 µM, first compound 3.16 µM"}, "[24]": {"conditions": "second compound 1 µM, first compound 10 µM"}, "[25]": {"conditions": "second compound 3.16 µM, first compound 0.0316 µM"}, "[26]": {"conditions": "second compound 3.16 µM, first compound 0.1 µM"}, "[27]": {"conditions": "second compound 3.16 µM, first compound 0.316 µM"}, "[28]": {"conditions": "second compound 3.16 µM, first compound 1 µM"}, "[29]": {"conditions": "second compound 3.16 µM, first compound 3.16 µM"}, "[30]": {"conditions": "second compound 3.16 µM, first compound 10 µM"}, "[31]": {"conditions": "second compound 10 µM, first compound 0.0316 µM"}, "[32]": {"conditions": "second compound 10 µM, first compound 0.1 µM"}, "[33]": {"conditions": "second compound 10 µM, first compound 0.316 µM"}, "[34]": {"conditions": "second compound 10 µM, first compound 1 µM"}, "[35]": {"conditions": "second compound 10 µM, first compound 3.16 µM"}, "[36]": {"conditions": "second compound 10 µM, first compound 10 µM"}},
  "note": "pIC50: −log10 of the molar value.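 Further: spheroids exposed to drugs for seven days.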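 Wherever viability, T/C is given: 100% = DMSO vehicle control viability.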",
  "data": [
    {"smiles": "C#Cc1c(F)ccc2cc(O)cc(-c3ncc4c(N5CC6CCC(C5)N6)nc(OCC56CCCN5CC(F)C6)nc4c3F)c12", "note": "(centres undefined) + Cc1cnc(CNC(=O)c2c(=O)c3ccc(N4CCCN(C)CC4)nc3n3c2sc2ccccc23)cn1", "values": [
      {"measurement": "pIC50", "setting": "second compound 0.0316 µM", "value": "< 5.00"},
      {"measurement": "pIC50", "setting": "second compound 0.1 µM", "value": "< 5.00"},
      {"measurement": "pIC50", "setting": "second compound 0.316 µM", "value": "< 5.00"},
      {"measurement": "pIC50", "setting": "second compound 1 µM", "value": 5.15},
      {"measurement": "pIC50", "setting": "second compound 3.16 µM", "value": 5.81},
      {"measurement": "pIC50", "setting": "second compound 10 µM", "value": 5.84},
      {"measurement": "viability, T/C", "setting": "[1]", "value": 115, "unit": "%"},
      {"measurement": "viability, T/C", "setting": "[2]", "value": 86.6, "unit": "%"},
      {"measurement": "viability, T/C", "setting": "[3]", "value": 101, "unit": "%"},
      {"measurement": "viability, T/C", "setting": "[4]", "value": 77.5, "unit": "%"},
      {"measurement": "viability, T/C", "setting": "[5]", "value": 83, "unit": "%"},
      {"measurement": "viability, T/C", "setting": "[6]", "value": 57.8, "unit": "%"},
      {"measurement": "viability, T/C", "setting": "[7]", "value": 95.2, "unit": "%"},
      {"measurement": "viability, T/C", "setting": "[8]", "value": 77.7, "unit": "%"},
      {"measurement": "viability, T/C", "setting": "[9]", "value": 75.3, "unit": "%"},
      {"measurement": "viability, T/C", "setting": "[10]", "value": 75, "unit": "%"},
      {"measurement": "viability, T/C", "setting": "[11]", "value": 70.7, "unit": "%"},
      {"measurement": "viability, T/C", "setting": "[12]", "value": 60.5, "unit": "%"},
      {"measurement": "viability, T/C", "setting": "[13]", "value": 84.1, "unit": "%"},
      {"measurement": "viability, T/C", "setting": "[14]", "value": 73, "unit": "%"},
      {"measurement": "viability, T/C", "setting": "[15]", "value": 85.7, "unit": "%"},
      {"measurement": "viability, T/C", "setting": "[16]", "value": 80.8, "unit": "%"},
      {"measurement": "viability, T/C", "setting": "[17]", "value": 69.5, "unit": "%"},
      {"measurement": "viability, T/C", "setting": "[18]", "value": 59.6, "unit": "%"},
      {"measurement": "viability, T/C", "setting": "[19]", "value": 84.2, "unit": "%"},
      {"measurement": "viability, T/C", "setting": "[20]", "value": 71.4, "unit": "%"},
      {"measurement": "viability, T/C", "setting": "[21]", "value": 75.5, "unit": "%"},
      {"measurement": "viability, T/C", "setting": "[22]", "value": 73, "unit": "%"},
      {"measurement": "viability, T/C", "setting": "[23]", "value": 62.8, "unit": "%"},
      {"measurement": "viability, T/C", "setting": "[24]", "value": 44.4, "unit": "%"},
      {"measurement": "viability, T/C", "setting": "[25]", "value": 65.2, "unit": "%"},
      {"measurement": "viability, T/C", "setting": "[26]", "value": 76.2, "unit": "%"},
      {"measurement": "viability, T/C", "setting": "[27]", "value": 66.9, "unit": "%"},
      {"measurement": "viability, T/C", "setting": "[28]", "value": 53.8, "unit": "%"},
      {"measurement": "viability, T/C", "setting": "[29]", "value": 44.5, "unit": "%"},
      {"measurement": "viability, T/C", "setting": "[30]", "value": 41, "unit": "%"},
      {"measurement": "viability, T/C", "setting": "[31]", "value": 64.1, "unit": "%"},
      {"measurement": "viability, T/C", "setting": "[32]", "value": 73.5, "unit": "%"},
      {"measurement": "viability, T/C", "setting": "[33]", "value": 67.7, "unit": "%"},
      {"measurement": "viability, T/C", "setting": "[34]", "value": 45.8, "unit": "%"},
      {"measurement": "viability, T/C", "setting": "[35]", "value": 43.2, "unit": "%"},
      {"measurement": "viability, T/C", "setting": "[36]", "value": 5.43, "unit": "%"}
    ]},
    {"smiles": "CC(=O)O[C@H]1C(=O)[C@@]2(C)[C@H]([C@H](OC(=O)c3ccccc3)[C@]3(O)C[C@H](OC(=O)[C@H](O)[C@@H](NC(=O)c4ccccc4)c4ccccc4)C(C)=C1C3(C)C)[C@]1(OC(C)=O)CO[C@@H]1C[C@@H]2O", "note": "+ Cc1cnc(CNC(=O)c2c(=O)c3ccc(N4CCCN(C)CC4)nc3n3c2sc2ccccc23)cn1", "values": [
      {"measurement": "pIC50", "setting": "second compound 0.0316 µM", "value": "< 5.00"},
      {"measurement": "pIC50", "setting": "second compound 0.1 µM", "value": "< 5.00"},
      {"measurement": "pIC50", "setting": "second compound 0.316 µM", "value": "< 5.00"},
      {"measurement": "pIC50", "setting": "second compound 1 µM", "value": "< 5.00"},
      {"measurement": "pIC50", "setting": "second compound 3.16 µM", "value": "< 5.00"},
      {"measurement": "pIC50", "setting": "second compound 10 µM", "value": "< 5.00"},
      {"measurement": "viability, T/C", "setting": "[1]", "value": 72.5, "unit": "%"},
      {"measurement": "viability, T/C", "setting": "[2]", "value": 80.5, "unit": "%"},
      {"measurement": "viability, T/C", "setting": "[3]", "value": 90.3, "unit": "%"},
      {"measurement": "viability, T/C", "setting": "[4]", "value": 81.1, "unit": "%"},
      {"measurement": "viability, T/C", "setting": "[5]", "value": 84.1, "unit": "%"},
      {"measurement": "viability, T/C", "setting": "[6]", "value": 95.8, "unit": "%"},
      {"measurement": "viability, T/C", "setting": "[7]", "value": 80.1, "unit": "%"},
      {"measurement": "viability, T/C", "setting": "[8]", "value": 93.4, "unit": "%"},
      {"measurement": "viability, T/C", "setting": "[9]", "value": 80.8, "unit": "%"},
      {"measurement": "viability, T/C", "setting": "[10]", "value": 93.6, "unit": "%"},
      {"measurement": "viability, T/C", "setting": "[11]", "value": 86.6, "unit": "%"},
      {"measurement": "viability, T/C", "setting": "[12]", "value": 84.5, "unit": "%"},
      {"measurement": "viability, T/C", "setting": "[13]", "value": 97.5, "unit": "%"},
      {"measurement": "viability, T/C", "setting": "[14]", "value": 94, "unit": "%"},
      {"measurement": "viability, T/C", "setting": "[15]", "value": 89.9, "unit": "%"},
      {"measurement": "viability, T/C", "setting": "[16]", "value": 91, "unit": "%"},
      {"measurement": "viability, T/C", "setting": "[17]", "value": 87.7, "unit": "%"},
      {"measurement": "viability, T/C", "setting": "[18]", "value": 95.6, "unit": "%"},
      {"measurement": "viability, T/C", "setting": "[19]", "value": 76, "unit": "%"},
      {"measurement": "viability, T/C", "setting": "[20]", "value": 84.8, "unit": "%"},
      {"measurement": "viability, T/C", "setting": "[21]", "value": 88.6, "unit": "%"},
      {"measurement": "viability, T/C", "setting": "[22]", "value": 89.5, "unit": "%"},
      {"measurement": "viability, T/C", "setting": "[23]", "value": 87, "unit": "%"},
      {"measurement": "viability, T/C", "setting": "[24]", "value": 75.8, "unit": "%"},
      {"measurement": "viability, T/C", "setting": "[25]", "value": 91.5, "unit": "%"},
      {"measurement": "viability, T/C", "setting": "[26]", "value": 72.9, "unit": "%"},
      {"measurement": "viability, T/C", "setting": "[27]", "value": 80.8, "unit": "%"},
      {"measurement": "viability, T/C", "setting": "[28]", "value": 71.1, "unit": "%"},
      {"measurement": "viability, T/C", "setting": "[29]", "value": 80.3, "unit": "%"},
      {"measurement": "viability, T/C", "setting": "[30]", "value": 83.8, "unit": "%"},
      {"measurement": "viability, T/C", "setting": "[31]", "value": 59.9, "unit": "%"},
      {"measurement": "viability, T/C", "setting": "[32]", "value": 62.5, "unit": "%"},
      {"measurement": "viability, T/C", "setting": "[33]", "value": 64.9, "unit": "%"},
      {"measurement": "viability, T/C", "setting": "[34]", "value": 53.8, "unit": "%"},
      {"measurement": "viability, T/C", "setting": "[35]", "value": 51.4, "unit": "%"},
      {"measurement": "viability, T/C", "setting": "[36]", "value": 61.4, "unit": "%"}
    ]}
  ]
}
